Columns and labels:
[1] = tested on: CCRF-CEM; type: cell-based; details: Homo sapiens, one dose 10^-5 M, 48 h
[2] = tested on: HL-60(TB); type: cell-based; details: Homo sapiens, one dose 10^-5 M, 48 h
[3] = tested on: K-562; type: cell-based; details: Homo sapiens, K562, one dose 10^-5 M, 48 h
[4] = tested on: MOLT-4; type: cell-based; details: Homo sapiens, one dose 10^-5 M, 48 h, read-out: % growth
[5] = tested on: RPMI-8226; type: cell-based; details: Homo sapiens, one dose 10^-5 M, 48 h
[6] = tested on: SR; type: cell-based; details: Homo sapiens, one dose 10^-5 M, 48 h
[7] = tested on: A549/ATCC; type: cell-based; details: Homo sapiens, one dose 10^-5 M, 48 h
[8] = tested on: EKVX; type: cell-based; details: Homo sapiens, one dose 10^-5 M, 48 h
[9] = tested on: HOP-62; type: cell-based; details: Homo sapiens, one dose 10^-5 M, 48 h
[10] = tested on: HOP-92; type: cell-based; details: Homo sapiens, one dose 10^-5 M, 48 h
[11] = tested on: NCI-H226; type: cell-based; details: Homo sapiens, one dose 10^-5 M, 48 h
[12] = tested on: NCI-H23; type: cell-based; details: Homo sapiens, one dose 10^-5 M, 48 h, read-out: % growth
[13] = tested on: NCI-H460; type: cell-based; details: Homo sapiens, one dose 10^-5 M, 48 h, read-out: % growth
[14] = tested on: NCI-H522; type: cell-based; details: Homo sapiens, one dose 10^-5 M, 48 h
[15] = tested on: COLO 205; type: cell-based; details: Homo sapiens, one dose 10^-5 M, 48 h
[16] = tested on: HCC-2998; type: cell-based; details: Homo sapiens, one dose 10^-5 M, 48 h
[17] = tested on: HCT-116; type: cell-based; details: Homo sapiens, one dose 10^-5 M, 48 h, read-out: % growth
[18] = tested on: HCT-15; type: cell-based; details: Homo sapiens, one dose 10^-5 M, 48 h, read-out: % growth
[19] = tested on: HT29; type: cell-based; details: Homo sapiens, HT-29, one dose 10^-5 M, 48 h
[20] = tested on: KM12; type: cell-based; details: Homo sapiens, one dose 10^-5 M, 48 h
[21] = tested on: SW-620; type: cell-based; details: Homo sapiens, one dose 10^-5 M, 48 h
[22] = tested on: SF-268; type: cell-based; details: Homo sapiens, one dose 10^-5 M, 48 h, read-out: % growth
[23] = tested on: SF-295; type: cell-based; details: Homo sapiens, one dose 10^-5 M, 48 h
[24] = tested on: SF-539; type: cell-based; details: Homo sapiens, one dose 10^-5 M, 48 h
[25] = tested on: SNB-19; type: cell-based; details: Homo sapiens, one dose 10^-5 M, 48 h, read-out: % growth
[26] = tested on: SNB-75; type: cell-based; details: Homo sapiens, one dose 10^-5 M, 48 h
[27] = tested on: U251; type: cell-based; details: Homo sapiens, U-251, one dose 10^-5 M, 48 h
[28] = tested on: LOX IMVI; type: cell-based; details: Homo sapiens, one dose 10^-5 M, 48 h, read-out: % growth
[29] = tested on: MALME-3M; type: cell-based; details: Homo sapiens, one dose 10^-5 M, 48 h
[30] = tested on: M14; type: cell-based; details: Homo sapiens, one dose 10^-5 M, 48 h
[31] = tested on: MDA-MB-435; type: cell-based; details: Homo sapiens, one dose 10^-5 M, 48 h, read-out: % growth
[32] = tested on: SK-MEL-2; type: cell-based; details: Homo sapiens, one dose 10^-5 M, 48 h
[33] = tested on: SK-MEL-28; type: cell-based; details: Homo sapiens, one dose 10^-5 M, 48 h
[34] = tested on: SK-MEL-5; type: cell-based; details: Homo sapiens, one dose 10^-5 M, 48 h, read-out: % growth
[35] = tested on: UACC-257; type: cell-based; details: Homo sapiens, one dose 10^-5 M, 48 h
[36] = tested on: UACC-62; type: cell-based; details: Homo sapiens, one dose 10^-5 M, 48 h
[37] = tested on: IGROV1; type: cell-based; details: Homo sapiens, IGROV-1, one dose 10^-5 M, 48 h, read-out: % growth
[38] = tested on: OVCAR-3; type: cell-based; details: Homo sapiens, one dose 10^-5 M, 48 h
[39] = tested on: OVCAR-4; type: cell-based; details: Homo sapiens, one dose 10^-5 M, 48 h
[40] = tested on: OVCAR-5; type: cell-based; details: Homo sapiens, one dose 10^-5 M, 48 h
[41] = tested on: OVCAR-8; type: cell-based; details: Homo sapiens, one dose 10^-5 M, 48 h
[42] = tested on: NCI/ADR-RES; type: cell-based; details: Homo sapiens, one dose 10^-5 M, 48 h
[43] = tested on: SK-OV-3; type: cell-based; details: Homo sapiens, one dose 10^-5 M, 48 h
[44] = tested on: 786-0; type: cell-based; details: Homo sapiens, one dose 10^-5 M, 48 h
[45] = tested on: A498; type: cell-based; details: Homo sapiens, one dose 10^-5 M, 48 h
[46] = tested on: ACHN; type: cell-based; details: Homo sapiens, one dose 10^-5 M, 48 h
[47] = tested on: CAKI-1; type: cell-based; details: Homo sapiens, CAKI-1, 48 h, one dose 10^-5 M, 48 h
[48] = tested on: SN12C; type: cell-based, human; details: Homo sapiens, one dose 10^-5 M, 48 h
[49] = tested on: TK-10; type: cell-based; details: Homo sapiens, one dose 10^-5 M, 48 h
[50] = tested on: UO-31; type: cell-based; details: Homo sapiens, UO-31, 48 h, one dose 10^-5 M, 48 h
[51] = tested on: PC-3; type: cell-based; details: Homo sapiens, one dose 10^-5 M, 48 h
[52] = tested on: DU-145; type: cell-based; details: Homo sapiens, one dose 10^-5 M, 48 h
[53] = tested on: MCF7; type: cell-based; details: Homo sapiens, one dose 10^-5 M, 48 h, read-out: % growth
[54] = tested on: MDA-MB-231/ATCC; type: cell-based; details: Homo sapiens, one dose 10^-5 M, 48 h
[55] = tested on: HS 578T; type: cell-based; details: Homo sapiens; one dose 10^-5 M, 48 h; HS 578T; read-out: % growth
[56] = tested on: BT-549; type: cell-based; details: Homo sapiens, one dose 10^-5 M, 48 h
[57] = tested on: T-47D; type: cell-based; details: Homo sapiens, T47D, one dose 10^-5 M, 48 h, read-out: % growth
[58] = tested on: MDA-MB-468; type: cell-based; details: Homo sapiens, one dose 10^-5 M, 48 h
[59] = tested on: full NCI 60 cell lines panel; details: for activity at 10 µM: Homo sapiens, 60 cell, 48 h, read-out: Mean % growth; for activity on all 60 cancer cell lines tested (in words): one dose

## CN(C)c1ccc(-c2nc(S)nc(N)c2C(=N)NN=Cc2ccc(Br)cc2)cc1 [Compound 4e, 4-amino-N'-[(4-bromophenyl)methylene]-6-[4-(dimethylamino)phenyl]-2-mercapto pyrimidine-5-carboximidohydrazide]
[1]
  % cell growth at 10 µM: 88.8%
[2]
  % growth at 10 µM: 91.6%
[3]
  % growth at 10 µM: 99.6%
[4]
  activity at 10 µM: 103%
[5]
  % growth at 10 µM: 84.4%
[6]
  percent cell growth at 10 µM: 91.5%
[7]
  % growth at 10 µM: 108%
[8]
  % cell growth at 10 µM: 98.6%
[9]
  % growth at 10 µM: 108%
[10]
  % growth at 10 µM: 112%
[11]
  % growth at 10 µM: 95.7%
[12]
  activity at 10 µM: 99.3%
[13]
  activity at 10 µM: 107%
[14]
  % growth at 10 µM: 98.5%
[15]
  % growth at 10 µM: 161%
[16]
  % growth at 10 µM: 112%
[17]
  activity at 10 µM: 101%
[18]
  activity at 10 µM: 102%
[19]
  % growth at 10 µM: 104%
[20]
  % growth at 10 µM: 110%
[21]
  % growth at 10 µM: 107%
[22]
  activity at 10 µM: 101%
[23]
  % cell growth at 10 µM: 104%
[24]
  % growth at 10 µM: 101%
[25]
  activity at 10 µM: 99.4%
[26]
  % growth at 10 µM: 114%
[27]
  % growth at 10 µM: 112%
[28]
  activity at 10 µM: 98.6%
[29]
  % growth at 10 µM: 98.6%
[30]
  % growth at 10 µM: 98.9%
[31]
  activity at 10 µM: 101%
[32]
  % growth at 10 µM: 107%
[33]
  % cell growth at 10 µM: 104%
[34]
  activity at 10 µM: 101%
[35]
  percent cell growth at 10 µM: 109%
[36]
  % growth at 10 µM: 94%
[37]
  activity at 10 µM: 102%
[38]
  % growth at 10 µM: 110%
[39]
  % growth at 10 µM: 102%
[40]
  percent cell growth at 10 µM: 104%
[41]
  % growth of cells at 10 µM: 113%
[42]
  cell growth percent at 10 µM: 102%
[43]
  % growth at 10 µM: 124%
[44]
  % growth at 10 µM: 103%
[45]
  % growth at 10 µM: 118%
[46]
  % growth at 10 µM: 105%
[47]
  % growth at 10 µM: 99.6%
[48]
  % growth at 10 µM: 102%
[49]
  % cell growth at 10 µM: 115%
[50]
  % cell growth at 10 µM: 69.9%
[51]
  percent cell growth at 10 µM: 91%
[52]
  % growth at 10 µM: 109%
[53]
  activity at 10 µM: 93.9%
[54]
  % growth at 10 µM: 102%
[55]
  activity at 10 µM: 108%
[56]
  % cell growth at 10 µM: 107%
[57]
  activity at 10 µM: 97.5%
[58]
  percent cell growth at 10 µM: 111%
[59]
  activity at 10 µM: 104%
  activity on all 60 cancer cell lines tested (in words): weak activity

## CN(C)c1ccc(-c2nc(S)nc(N)c2C#N)cc1 [Compound 1a]
[1]
  % cell growth at 10 µM: 90.9%
[2]
  % growth at 10 µM: 94%
[3]
  % growth at 10 µM: 89.8%
[4]
  activity at 10 µM: 92.6%
[5]
  % growth at 10 µM: 80.5%
[6]
  percent cell growth at 10 µM: 83%
[7]
  % growth at 10 µM: 96.5%
[8]
  % cell growth at 10 µM: 87.9%
[9]
  % growth at 10 µM: 117%
[10]
  % growth at 10 µM: 94%
[11]
  % growth at 10 µM: 96%
[12]
  activity at 10 µM: 95%
[13]
  activity at 10 µM: 113%
[14]
  % growth at 10 µM: 79.7%
[15]
  % growth at 10 µM: 123%
[16]
  % growth at 10 µM: 105%
[17]
  activity at 10 µM: 91.9%
[18]
  activity at 10 µM: 86.4%
[19]
  % growth at 10 µM: 109%
[20]
  % growth at 10 µM: 92.3%
[21]
  % growth at 10 µM: 113%
[22]
  activity at 10 µM: 104%
[23]
  % cell growth at 10 µM: 103%
[24]
  % growth at 10 µM: 98.4%
[25]
  activity at 10 µM: 89.9%
[26]
  % growth at 10 µM: 107%
[27]
  % growth at 10 µM: 90.6%
[28]
  activity at 10 µM: 85.6%
[29]
  % growth at 10 µM: 106%
[30]
  % growth at 10 µM: 102%
[31]
  activity at 10 µM: 103%
[32]
  % growth at 10 µM: 107%
[33]
  % cell growth at 10 µM: 103%
[34]
  activity at 10 µM: 88.7%
[35]
  percent cell growth at 10 µM: 102%
[36]
  % growth at 10 µM: 77.2%
[37]
  activity at 10 µM: 100%
[38]
  % growth at 10 µM: 94.4%
[39]
  % growth at 10 µM: 101%
[40]
  percent cell growth at 10 µM: 108%
[41]
  % growth of cells at 10 µM: 103%
[42]
  cell growth percent at 10 µM: 91.2%
[43]
  % growth at 10 µM: 121%
[44]
  % growth at 10 µM: 87.9%
[45]
  % growth at 10 µM: 131%
[46]
  % growth at 10 µM: 98%
[47]
  % growth at 10 µM: 92.4%
[48]
  % growth at 10 µM: 90.7%
[49]
  % cell growth at 10 µM: 111%
[50]
  % cell growth at 10 µM: 83.8%
[51]
  percent cell growth at 10 µM: 87.8%
[52]
  % growth at 10 µM: 102%
[53]
  activity at 10 µM: 80.4%
[54]
  % growth at 10 µM: 96%
[55]
  activity at 10 µM: 100%
[56]
  % cell growth at 10 µM: 85.4%
[57]
  activity at 10 µM: 75.6%
[58]
  percent cell growth at 10 µM: 60.2%
[59]
  activity at 10 µM: 96.6%
  activity on all 60 cancer cell lines tested (in words): weak activity

From publication PMC10866072, “Design, synthesis, molecular modelling and biological evaluation of novel 6-amino-5-cyano-2-thiopyrimidine derivatives as potent anticancer agents against leukemia and apoptotic inducers” (Journal of Enzyme Inhibition and Medicinal Chemistry, 2024)
